Patent US7427680B2, “Fluorogenic substrates for BETA-lactamase gene expression” (The Regents of the University of California, priority 2001, dated 2008)

Assays:
Bla = Bla (Escherichia coli, UniProt P62593); settings: cited from earlier work
[1] = system: Bla-stably-transfected C6 glioma cells; test: Fluorescence imaging of Bla activity in living cells; type: cell-based; settings: loaded in Hank's Balanced Salts Solution 25 min, room temperature; excitation 540/25, emission 635/55
Procedure: FIG. 13A illustrates the structures of CR2 and CR2/AM. FIG. 13B presents fluorescence images (40×magnification) of wild type (right) and Bla-stably-transfected (left) C6 glioma cells loaded with CR2/AM in Hank's Balanced Salts Solution for 25 min at room temperature. The excitation filter was set at 540/25 (540 nm peak with a width of 25 nm around the peak). The emission filter was set at 635/55.

Sequence of Bla (P62593 24-286 limits assumed): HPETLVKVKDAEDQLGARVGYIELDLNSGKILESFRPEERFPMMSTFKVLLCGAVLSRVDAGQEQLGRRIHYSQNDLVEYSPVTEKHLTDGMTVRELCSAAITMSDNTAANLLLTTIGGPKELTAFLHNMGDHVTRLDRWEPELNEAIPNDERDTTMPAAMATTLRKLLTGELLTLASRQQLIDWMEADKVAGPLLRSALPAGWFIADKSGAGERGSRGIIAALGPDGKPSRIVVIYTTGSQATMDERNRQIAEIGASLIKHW

Structure (SMILES)	Km (Bla; Zlokarnik et al., Science 1998)	kcat (Bla; Zlokarnik et al., Science 1998)	enhancement of fluorescent emission (Bla; at similar wavelengths (about 460 nm))	imaging of Bla activity in living cells [1]
O=C(CNC(=O)c1cc2cc(Cl)c(O)cc2oc1=O)N[C@@H]1C(=O)N2C(C(=O)O)=C(CSc3ccc4c(c3)C(=O)OC43c4ccc(O)cc4Oc4cc(O)ccc43)CS[C@H]12 [CCF2]	23 µM	29 s⁻¹	20 fold	–
CC(=O)OCOC(=O)C1=C(/C=C\COc2ccc3nc4ccc(=O)cc-4oc3c2)C[S@H](O)[C@@H]2[C@H](NC(=O)Cc3cccs3)C(=O)N12 [CR2/AM]	–	–	–	able to image the Bla activity
